Assay results as given in the supplement of paper PMC11061612.

Experiments:
ACHN (Kidney Carcinoma) = assay: combination Emax (second highest fraction inhibited in the dose matrix, 72 h); higher = more inhibition; extreme values may be limits of the assay
In short: (§1)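 Cell lines grown in DMEM/F12 or RPMI with 10% FBS were plated in 1536-well plates and held 24 hours at 37°C, 5% CO2 before 72 hours of exposure to two-drug dose matrices, with DMSO typically at 0.2%. CellTiter-Glo 2.0 luminescence gave viability, which was converted to inhibition. Vehicle wells were set to 0 and blank wells to 1. Combination Emax is the second-highest inhibition in the matrix, and Bliss excess is the observed combination effect minus the expected EA + EB − EA·EB, where EA and EB are the single-agent effects.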

[1] = test system: RF-48 (B-Cell Non-Hodgkin's Lymphoma); assay: as above
In short: as §1

| SMILES | combination Emax (ACHN (Kidney Carcinoma)) | combination Emax [1] |
| --- | --- | --- |
| O=C(c1cc(Cc2n[nH]c(=O)c3ccccc23)ccc1F)N1CCN(C(=O)C2CC2)CC1 [Olaparib] + CC1(C)CCC(CN2CCN(c3ccc(C(=O)NS(=O)(=O)c4ccc(NCC5CCOCC5)c([N+](=O)[O-])c4)c(Oc4cnc5[nH]ccc5c4)c3)CC2)=C(c2ccc(Cl)cc2)C1 [Venetoclax] (first compound max 10 µM, 7x7, partner max 1 µM) | 0.143 | 0.606 |
| COc1nnc2ccc(N3CCC(c4ccc(OCCN5CCN(C)C(=O)[C@H]5C)cc4)CC3)nn12 [AZD5153] + CC1(C)CCC(CN2CCN(c3ccc(C(=O)NS(=O)(=O)c4ccc(NCC5CCOCC5)c([N+](=O)[O-])c4)c(Oc4cnc5[nH]ccc5c4)c3)CC2)=C(c2ccc(Cl)cc2)C1 [Venetoclax] (first compound max 1 µM, 7x7, partner max 1 µM) | 0.535 | 0.53 |
| CC(=O)c1c(C)c2cnc(Nc3ccc(N4CCNCC4)cn3)nc2n(C2CCCC2)c1=O [Palbociclib] + CC1(C)CCC(CN2CCN(c3ccc(C(=O)NS(=O)(=O)c4ccc(NCC5CCOCC5)c([N+](=O)[O-])c4)c(Oc4cnc5[nH]ccc5c4)c3)CC2)=C(c2ccc(Cl)cc2)C1 [Venetoclax] (first compound max 10 µM, 7x7, partner max 1 µM) | 0.597 | 0.254 |
| Cc1c2c(nn1C)CSCc1cc(n(C)n1)CSc1cc(c3ccccc3c1)OCCCc1c(C(=O)O)n(C)c3c-2c(Cl)ccc13 [AZD5991] + CC(=O)O[C@H]1C(=O)[C@@]2(C)[C@H]([C@H](OC(=O)c3ccccc3)[C@]3(O)C[C@H](OC(=O)[C@H](O)[C@@H](NC(=O)c4ccccc4)c4ccccc4)C(C)=C1C3(C)C)[C@]1(OC(C)=O)CO[C@@H]1C[C@@H]2O [Paclitaxel] (first compound max 1 µM, 7x7, partner max 3 µM) | 0.604 | 0.807 |
| NC1(C(=O)N[C@@H](CCO)c2ccc(Cl)cc2)CCN(c2ncnc3[nH]ccc23)CC1 [Capivasertib] + COc1nnc2ccc(N3CCC(c4ccc(OCCN5CCN(C)C(=O)[C@H]5C)cc4)CC3)nn12 [AZD5153] (first compound max 10 µM, 7x7, partner max 1 µM) | 0.672 | 0.474 |
| O=C(c1cc(Cc2n[nH]c(=O)c3ccccc23)ccc1F)N1CCN(C(=O)C2CC2)CC1 [Olaparib] + COc1nnc2ccc(N3CCC(c4ccc(OCCN5CCN(C)C(=O)[C@H]5C)cc4)CC3)nn12 [AZD5153] (first compound max 10 µM, 7x7, partner max 1 µM) | 0.539 | 0.354 |
| C[C@@H](Oc1cc(-c2cnn(C3CCNCC3)c2)cnc1N)c1c(Cl)ccc(F)c1Cl [Crizotinib] + CC1=C(C(=CC=C1)Cl)NC(=O)C2=CN=C(S2)NC3=CC(=NC(=N3)C)N4CCN(CC4)CCO [Dasatinib] (first compound max 10 µM, 7x7, partner max 2 µM) | 0.756 | 0.365 |
| CS(=O)(=O)CCNCc1ccc(-c2ccc3ncnc(Nc4ccc(OCc5cccc(F)c5)c(Cl)c4)c3c2)o1 [Lapatinib] + NC1(c2ccc(-c3nc4ccn5c(=O)[nH]nc5c4cc3-c3ccccc3)cc2)CCC1 [MK-2206] (first compound max 10 µM, 7x7, partner max 10 µM) | 0.676 | 0.658 |
| NC1(C(=O)N[C@@H](CCO)c2ccc(Cl)cc2)CCN(c2ncnc3[nH]ccc23)CC1 [Capivasertib] + CC(=O)c1c(C)c2cnc(Nc3ccc(N4CCNCC4)cn3)nc2n(C2CCCC2)c1=O [Palbociclib] (first compound max 10 µM, 7x7, partner max 10 µM) | 0.658 | 0.42 |
| C=CCn1c(=O)c2cnc(Nc3ccc(N4CCN(C)CC4)cc3)nc2n1-c1cccc(C(C)(C)O)n1 [AZD1775] + CCc1c2c(nc3ccc(O)cc13)-c1cc3c(c(=O)n1C2)COC(=O)[C@]3(O)CC [SN-38] (first compound max 1 µM, partner max 0.3 µM) | 0.946 | 0.783 |
| CS(=O)(=O)CCNCc1ccc(-c2ccc3ncnc(Nc4ccc(OCc5cccc(F)c5)c(Cl)c4)c3c2)o1 [Lapatinib] + C[C@@H](Oc1cc(-c2cnn(C3CCNCC3)c2)cnc1N)c1c(Cl)ccc(F)c1Cl [Crizotinib] (first compound max 10 µM, 7x7, partner max 10 µM) | 0.781 | 0.477 |
| COc1nnc2ccc(N3CCC(c4ccc(OCCN5CCN(C)C(=O)[C@H]5C)cc4)CC3)nn12 [AZD5153] + C=CCn1c(=O)c2cnc(Nc3ccc(N4CCN(C)CC4)cc3)nc2n1-c1cccc(C(C)(C)O)n1 [AZD1775] (first compound max 1 µM, partner max 1 µM) | 0.835 | 0.558 |
| C[C@@H](Oc1cc(-c2cnn(C3CCNCC3)c2)cnc1N)c1c(Cl)ccc(F)c1Cl [Crizotinib] + Cn1cnc2c(F)c(Nc3ccc(Br)cc3Cl)c(C(=O)NOCCO)cc21 [Selumetinib] (first compound max 10 µM, 7x7, partner max 10 µM) | 0.572 | 0.306 |
| Cn1cnc2c(F)c(Nc3ccc(Br)cc3Cl)c(C(=O)NOCCO)cc21 [Selumetinib] + CCN(CCO)CCCOc1ccc2c(Nc3cc(CC(=O)Nc4cccc(F)c4)[nH]n3)ncnc2c1 [AZD2811] (first compound max 10 µM, 7x7, partner max 1 µM) | 0.366 | 0.312 |
| Cc1c2c(nn1C)CSCc1cc(n(C)n1)CSc1cc(c3ccccc3c1)OCCCc1c(C(=O)O)n(C)c3c-2c(Cl)ccc13 [AZD5991] + CS(=O)(=O)CCNCc1ccc(-c2ccc3ncnc(Nc4ccc(OCc5cccc(F)c5)c(Cl)c4)c3c2)o1 [Lapatinib] (first compound max 1 µM, 7x7, partner max 10 µM) | 0.481 | 0.244 |
| C[C@@H](Nc1cc(F)cc(F)c1)c1cc(C(=O)N(C)C)cc2c(=O)cc(N3CCOCC3)oc12 [AZD8186] + CC(=O)c1c(C)c2cnc(Nc3ccc(N4CCNCC4)cn3)nc2n(C2CCCC2)c1=O [Palbociclib] (first compound max 10 µM, 7x7, partner max 10 µM) | 0.661 | 0.4 |
| COc1nnc2ccc(N3CCC(c4ccc(OCCN5CCN(C)C(=O)[C@H]5C)cc4)CC3)nn12 [AZD5153] + CCN(CCO)CCCOc1ccc2c(Nc3cc(CC(=O)Nc4cccc(F)c4)[nH]n3)ncnc2c1 [AZD2811] (first compound max 1 µM, 7x7, partner max 1 µM) | 0.562 | 0.418 |
| Cc1nc(-c2cn3c(n2)-c2ccc(-c4cnn(C(C)(C)C(N)=O)c4)cc2OCC3)n(C(C)C)n1 [Taselisib] + O=C(Nc1ccc2[nH]nc(-c3ccncc3)c2c1)[C@@H]1CCN(CC(=O)N2CCN(c3ccc(-c4ncccn4)cc3)CC2)C1 [SCH772984] (first compound max 10 µM, 7x7, partner max 5 µM) | 0.692 | 0.36 |
| C=CCn1c(=O)c2cnc(Nc3ccc(N4CCN(C)CC4)cc3)nc2n1-c1cccc(C(C)(C)O)n1 [AZD1775] + Nc1ccn([C@@H]2O[C@H](CO)[C@@H](O)C2(F)F)c(=O)n1 [Gemcitabine] (first compound max 1 µM, partner max 0.3 µM) | 0.853 | 0.727 |
| C[C@@H](Nc1cc(F)cc(F)c1)c1cc(C(=O)N(C)C)cc2c(=O)cc(N3CCOCC3)oc12 [AZD8186] + C1CN(CCC1(C(=O)N[C@@H](CCO)C2=CC=C(C=C2)Cl)N)C3=NC=NC4=C3C=CN4 [AZD5363] (first compound max 10 µM, 7x7, partner max 10 µM) | 0.414 | 0.432 |
| CC1(C)CCC(CN2CCN(c3ccc(C(=O)NS(=O)(=O)c4ccc(NCC5CCOCC5)c([N+](=O)[O-])c4)c(Oc4cnc5[nH]ccc5c4)c3)CC2)=C(c2ccc(Cl)cc2)C1 [Venetoclax] + CS(=O)(=O)CCNCc1ccc(-c2ccc3ncnc(Nc4ccc(OCc5cccc(F)c5)c(Cl)c4)c3c2)o1 [Lapatinib] (first compound max 1 µM, 7x7, partner max 10 µM) | 0.52 | 0.34 |
| COc1nnc2ccc(N3CCC(c4ccc(OCCN5CCN(C)C(=O)[C@H]5C)cc4)CC3)nn12 [AZD5153] + Cc1c2c(nn1C)CSCc1cc(n(C)n1)CSc1cc(c3ccccc3c1)OCCCc1c(C(=O)O)n(C)c3c-2c(Cl)ccc13 [AZD5991] (first compound max 1 µM, 7x7, partner max 1 µM) | 0.537 | 0.473 |
| NC1(C(=O)N[C@@H](CCO)c2ccc(Cl)cc2)CCN(c2ncnc3[nH]ccc23)CC1 [Capivasertib] + C[C@@H]1COCCN1C2=NC(=NC(=C2)C3(CC3)[S@](=N)(=O)C)C4=C5C=CNC5=NC=C4 [AZD6738] (first compound max 10 µM, 7x7, partner max 10 µM) | 0.856 | 0.627 |
| COc1nnc2ccc(N3CCC(c4ccc(OCCN5CCN(C)C(=O)[C@H]5C)cc4)CC3)nn12 [AZD5153] + Cn1cnc2c(F)c(Nc3ccc(Br)cc3Cl)c(C(=O)NOCCO)cc21 [Selumetinib] (first compound max 1 µM, 7x7, partner max 10 µM) | 0.634 | 0.362 |
| CN(CCO)CC[C@H](CSc1ccccc1)Nc1ccc(S(=O)(=O)NC(=O)c2ccc(N3CCC([C@@H](O)c4ccccc4-c4ccc(Cl)cc4)CC3)cc2)cc1S(=O)(=O)C(F)(F)F [AZD4320] + CS(=O)(=O)CCNCc1ccc(-c2ccc3ncnc(Nc4ccc(OCc5cccc(F)c5)c(Cl)c4)c3c2)o1 [Lapatinib] (first compound max 1 µM, 7x7, partner max 10 µM) | 0.466 | 0.874 |
| CC(=O)c1c(C)c2cnc(Nc3ccc(N4CCNCC4)cn3)nc2n(C2CCCC2)c1=O [Palbociclib] + Cn1cnc2c(F)c(Nc3ccc(Br)cc3Cl)c(C(=O)NOCCO)cc21 [Selumetinib] (first compound max 10 µM, 7x7, partner max 10 µM) | 0.606 | 0.277 |
| Cn1cnc2c(F)c(Nc3ccc(Br)cc3Cl)c(C(=O)NOCCO)cc21 [Selumetinib] + C[C@@H]1COCCN1C2=NC(=NC(=C2)C3(CC3)[S@](=N)(=O)C)C4=C5C=CNC5=NC=C4 [AZD6738] (first compound max 10 µM, 7x7, partner max 10 µM) | 0.804 | 0.371 |
